PMC6370829, “NADP^+ is an endogenous PARP inhibitor in DNA damage response and tumor suppression” (Nature Communications, 2019)
pKd: −log10 of the molar value.

Columns and labels:
[1] = molecular target: T1, NADK (Homo sapiens, UniProt O95544); test: recombinant enzyme reaction, product confirmed by mass spectrometry; type: biochemical
T1 construct: recombinant NADK
T1 sequence (O95544 1-446): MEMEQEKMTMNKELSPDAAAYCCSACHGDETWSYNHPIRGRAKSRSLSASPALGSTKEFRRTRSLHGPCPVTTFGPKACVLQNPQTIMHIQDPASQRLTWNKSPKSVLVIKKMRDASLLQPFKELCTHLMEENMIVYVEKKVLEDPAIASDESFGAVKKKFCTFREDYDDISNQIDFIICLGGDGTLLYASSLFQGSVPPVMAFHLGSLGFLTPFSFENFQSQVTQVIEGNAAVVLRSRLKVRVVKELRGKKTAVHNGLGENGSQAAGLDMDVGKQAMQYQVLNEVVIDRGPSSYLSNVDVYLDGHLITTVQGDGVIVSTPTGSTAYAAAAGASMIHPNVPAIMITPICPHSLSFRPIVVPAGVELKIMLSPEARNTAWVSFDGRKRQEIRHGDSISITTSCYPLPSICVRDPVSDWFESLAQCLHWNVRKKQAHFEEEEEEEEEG

[2] = molecular target: T2, PARP1 (Homo sapiens, UniProt P09874); test: ITC; also […]NADP+ pull-down binding and inhibition of auto-PARylation; parameters: catalytic domain (GST-PARP1 CAT, aa. 662–1014) for ITC
Target sequence in this assay (P09874 662-1014): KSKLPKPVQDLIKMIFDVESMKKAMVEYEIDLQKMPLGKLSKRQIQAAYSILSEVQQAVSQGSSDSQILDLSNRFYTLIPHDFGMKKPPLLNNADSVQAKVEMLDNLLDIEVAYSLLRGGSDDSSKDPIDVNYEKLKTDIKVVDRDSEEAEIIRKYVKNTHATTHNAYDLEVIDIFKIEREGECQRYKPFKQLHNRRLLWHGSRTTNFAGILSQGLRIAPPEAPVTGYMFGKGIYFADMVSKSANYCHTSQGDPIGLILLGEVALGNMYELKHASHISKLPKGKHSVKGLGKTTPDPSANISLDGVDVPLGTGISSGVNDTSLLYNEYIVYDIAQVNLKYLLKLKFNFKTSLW

[3] = molecular target: T3, PARP10 (Homo sapiens, UniProt Q53GL7); test: […]NADP+ binding to immobilized protein (TLC); also inhibition of auto-MARylation
T3 construct: GST-PARP10
T3 sequence (Q53GL7 1-1025): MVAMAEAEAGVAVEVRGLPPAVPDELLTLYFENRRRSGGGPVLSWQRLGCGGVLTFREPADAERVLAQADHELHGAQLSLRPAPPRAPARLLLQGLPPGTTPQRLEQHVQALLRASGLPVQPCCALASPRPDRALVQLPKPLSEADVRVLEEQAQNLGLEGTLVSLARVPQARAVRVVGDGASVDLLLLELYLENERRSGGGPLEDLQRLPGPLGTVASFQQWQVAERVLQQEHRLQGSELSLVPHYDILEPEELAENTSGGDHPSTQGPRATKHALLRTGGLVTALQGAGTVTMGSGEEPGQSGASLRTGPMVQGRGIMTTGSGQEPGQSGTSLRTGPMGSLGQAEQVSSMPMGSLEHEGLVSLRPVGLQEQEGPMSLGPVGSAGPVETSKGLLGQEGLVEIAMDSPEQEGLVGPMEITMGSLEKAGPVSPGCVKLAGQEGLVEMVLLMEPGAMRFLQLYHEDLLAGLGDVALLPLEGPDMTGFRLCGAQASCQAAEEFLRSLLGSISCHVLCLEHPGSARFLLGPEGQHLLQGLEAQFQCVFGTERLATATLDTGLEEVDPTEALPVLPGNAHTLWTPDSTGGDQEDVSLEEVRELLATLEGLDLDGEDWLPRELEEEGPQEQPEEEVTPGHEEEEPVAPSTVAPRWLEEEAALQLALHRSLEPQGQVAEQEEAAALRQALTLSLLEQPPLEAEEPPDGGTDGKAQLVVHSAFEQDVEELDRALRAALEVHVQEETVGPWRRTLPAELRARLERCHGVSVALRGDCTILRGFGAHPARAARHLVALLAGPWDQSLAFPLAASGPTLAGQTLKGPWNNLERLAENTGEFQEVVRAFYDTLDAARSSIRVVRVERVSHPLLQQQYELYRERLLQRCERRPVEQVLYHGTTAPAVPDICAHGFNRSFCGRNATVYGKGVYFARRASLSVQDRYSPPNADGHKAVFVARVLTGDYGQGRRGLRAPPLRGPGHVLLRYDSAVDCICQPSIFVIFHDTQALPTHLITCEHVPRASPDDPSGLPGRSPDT

[4] = molecular target: T4, PARP2 (Homo sapiens, UniProt Q9UGN5); test: […]NADP+ binding to immobilized protein (TLC); also inhibition of auto-PARylation
T4 construct: HIS-PARP2
T4 sequence (Q9UGN5 whole entry): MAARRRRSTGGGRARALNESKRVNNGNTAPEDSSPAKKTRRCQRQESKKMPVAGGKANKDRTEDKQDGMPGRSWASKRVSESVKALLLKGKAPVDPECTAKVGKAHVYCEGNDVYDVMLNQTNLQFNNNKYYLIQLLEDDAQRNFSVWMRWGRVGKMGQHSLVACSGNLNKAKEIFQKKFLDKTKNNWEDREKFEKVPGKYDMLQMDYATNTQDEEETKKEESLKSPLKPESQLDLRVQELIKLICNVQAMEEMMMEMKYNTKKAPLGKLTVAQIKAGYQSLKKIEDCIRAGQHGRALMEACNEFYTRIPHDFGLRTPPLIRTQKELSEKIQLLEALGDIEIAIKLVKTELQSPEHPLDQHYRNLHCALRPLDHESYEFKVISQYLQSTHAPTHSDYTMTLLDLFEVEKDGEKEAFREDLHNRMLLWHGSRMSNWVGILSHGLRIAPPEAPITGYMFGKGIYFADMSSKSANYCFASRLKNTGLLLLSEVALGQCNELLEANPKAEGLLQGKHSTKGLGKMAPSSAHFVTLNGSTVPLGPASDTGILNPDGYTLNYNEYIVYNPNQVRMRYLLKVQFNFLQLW

[5] = molecular target: T3, PARP10; test: in vitro auto-MARylation, autoradiography; type: biochemical
[6] = molecular target: T2, PARP1; test: in vitro auto-PARylation, western blot and […]NAD+ autoradiography; type: biochemical; parameters: HIS-PARP1
Target sequence in this assay (P09874 2-1014): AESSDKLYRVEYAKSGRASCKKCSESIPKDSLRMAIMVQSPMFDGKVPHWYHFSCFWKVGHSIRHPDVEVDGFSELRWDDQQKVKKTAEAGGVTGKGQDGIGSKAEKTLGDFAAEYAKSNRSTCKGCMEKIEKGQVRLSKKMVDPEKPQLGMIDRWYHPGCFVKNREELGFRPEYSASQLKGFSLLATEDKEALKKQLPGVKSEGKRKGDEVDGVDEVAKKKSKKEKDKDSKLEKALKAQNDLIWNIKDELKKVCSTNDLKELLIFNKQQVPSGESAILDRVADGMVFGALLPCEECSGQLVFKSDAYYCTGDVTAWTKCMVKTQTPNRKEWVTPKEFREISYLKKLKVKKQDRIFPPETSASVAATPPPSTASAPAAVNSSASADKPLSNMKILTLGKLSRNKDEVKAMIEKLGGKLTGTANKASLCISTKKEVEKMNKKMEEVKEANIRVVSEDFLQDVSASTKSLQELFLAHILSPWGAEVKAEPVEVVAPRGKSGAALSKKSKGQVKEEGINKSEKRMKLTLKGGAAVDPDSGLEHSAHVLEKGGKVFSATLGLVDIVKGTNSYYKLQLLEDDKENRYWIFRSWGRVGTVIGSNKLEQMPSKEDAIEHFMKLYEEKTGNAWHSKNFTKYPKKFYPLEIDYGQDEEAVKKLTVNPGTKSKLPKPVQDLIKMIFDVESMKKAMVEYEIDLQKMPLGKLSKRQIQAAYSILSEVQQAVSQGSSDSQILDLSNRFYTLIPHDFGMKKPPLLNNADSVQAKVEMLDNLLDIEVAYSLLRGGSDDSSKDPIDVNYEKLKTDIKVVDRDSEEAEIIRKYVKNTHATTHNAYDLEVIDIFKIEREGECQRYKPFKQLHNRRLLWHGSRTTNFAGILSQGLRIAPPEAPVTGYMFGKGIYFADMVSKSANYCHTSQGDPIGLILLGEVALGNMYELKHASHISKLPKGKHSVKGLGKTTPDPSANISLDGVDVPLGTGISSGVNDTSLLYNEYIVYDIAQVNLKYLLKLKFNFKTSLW

Compound	recombinant enzyme reaction, product confirmed by mass spectrometry [1]	pKd [2]	[32P]NADP+ binding to immobilized protein (TLC); also inhibition of auto-MARylat [3]	[32P]NADP+ binding to immobilized protein (TLC); also inhibition of auto-PARylat [4]	in vitro auto-MARylation, autoradiography [5]	in vitro auto-PARylation, western blot and [32P]NAD+ autoradiography [6]
NC(=O)c1ccc[n+]([C@@H]2O[C@H](COP(=O)(O)OP(=O)(O)OC[C@H]3O[C@@H](n4cnc5c(N)ncnc54)[C@H](OP(=O)(O)O)[C@@H]3O)[C@@H](O)[C@H]2O)c1 [NADP^+]	Formation of NADP^+ by our recombinant protein was confirmed by mass spectrometry	~4.41	found that PARP1, PARP2, and PARP10 indeed were able to bind NADP^+ (Fig. 3a)	found that PARP1, PARP2, and PARP10 indeed were able to bind NADP^+ (Fig. 3a)	–	–
NC(=O)c1ccc[n+]([C@@H]2O[C@H](COP(=O)([O-])OP(=O)(O)OC[C@H]3O[C@@H](n4cnc5c(N)ncnc54)[C@H](O)[C@@H]3O)[C@@H](O)[C@H]2O)c1 [NAD^+]	recombinant NADK protein that can transfer phosphate moiety from ATP to NAD^+ to synthesize NADP^+	–	–	–	Auto-MARylation of PARP10 was examined by autoradiography	with NAD^+, PARP1 quickly synthesized PAR chains and autoPARylated itself
